Data: patent US11078170B2 (Assembly Biosciences, Inc., priority 2017, dated 2021)

system: HBV viral production from HepAD38 cells; experiment: Activity of test compounds on viral production from HepAD38 cells (viral load by qPCR of HBV core sequence in supernatant); format: cell-based; details: Hepatitis B virus, 120 h, 5 days incubation, HBV DNA in supernatant by qPCR, top concentration 10 μM, read-out: Viral Load EC50 Activity range
How it was run: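 EC50 and CC50 come from four-parameter fits of supernatant viral load and CellTiter-Glo viability, respectively. Viral load was measured by core-region TaqMan qPCR against HBV DNA standards and compared with DMSO controls. Tet-free HepAD38 cells (50,000/well, 2% FBS) were exposed to compound, highest 10 μM, for 5 days at 37° C.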

| SMILES | EC50 [nM] |
| --- | --- |
| CN1C(C(=O)Nc2ccc(F)c(Cl)c2)CC(c2cc(-c3ccc(C(F)(F)F)nc3)cs2)NS1(=O)=O (racemic) [HBV-CSU-166, Cis-N-(3-chloro-4-fluorophenyl)-2-methyl-5-(4-(6-(trifluoromethyl)pyridin-3-yl)thiophen-2-yl)-1,2,6-thiadiazinane-3-carboxamide 1,1-dioxide] | < 1000 |
| CN1C(C(=O)Nc2ccc(F)c(Cl)c2)CC(c2cc(-c3cccs3)cs2)NS1(=O)=O (stereo not drawn) [HBV-CSU-170] | < 1000 |
| COc1ccc(CN2C(C(=O)Nc3ccc(F)c(Cl)c3)CC(c3nccs3)NS2(=O)=O)cc1 (stereo not drawn) [HBV-CSU-108, Cis-N-(3-chloro-4-fluorophenyl)-2-(4-methoxybenzyl)-5-(thiazol-2-yl)-1,2,6-thiadiazinane-3-carboxamide 1,1-dioxide] | > 5000 |
| CN1[C@H](C(=O)Nc2ccc(F)c(Cl)c2)C[C@H](c2cc(-c3ccc(C(F)(F)F)nc3)cs2)NS1(=O)=O [HBV-CSU-166-ISO-I, Cis-N-(3-chloro-4-fluorophenyl)-2-methyl-5-(4-(6-(trifluoromethyl)pyridin-3-yl)thiophen-2-yl)-1,2,6-thiadiazinane-3-carboxamide 1,1-dioxide] | < 1000 |
| CN1C(C(=O)Nc2ccc(F)c(Cl)c2)CC(c2cc(-c3ccc(Br)c(F)c3)cs2)NS1(=O)=O (racemic) [HBV-CSU-165, Cis-N-(3-chloro-4-fluorophenyl)-5-(4-(4-bromo-3-fluorophenyl)thiophen-2-yl)-2-methyl-1,2,6-thiadiazinane-3-carboxamide 1,1-dioxide] | 1000 to 5000 |
| CN1[C@H](C(=O)Nc2ccc(F)c(Cl)c2)C[C@H](c2ncc(-c3cccs3)s2)NS1(=O)=O [HBV-CSU-178-ISO-I, Cis-N-(3-Chloro-4-fluorophenyl)-2-methyl-5-(5-(thiophen-2-yl)thiazol-2-yl)-1,2,6-thiadiazinane-3-carboxamide 1,1-dioxide] | < 1000 |
| CN1C(C(=O)Nc2ccc(F)c(Cl)c2)CC(c2ccc(Cc3ccccc3)s2)NS1(=O)=O (stereo not drawn) [HBV-CSU-117, Cis-(5-benzylthiophen-2-yl)-N-(3-chloro-4-fluorophenyl)-2-methyl-1,2,6-thiadiazinane-3-carboxamide 1,1-dioxide] | < 1000 |
| CN1[C@@H](C(=O)Nc2ccc(F)c(Cl)c2)C[C@@H](c2ccc(-c3ncnn3C)s2)NS1(=O)=O [HBV-CSU-323-ISO-II, Cis-N-(3-Chloro-4-fluorophenyl)-2-methyl-5-(5-(1-methyl-1H-1,2,4-triazol-5-yl)thiophen-2-yl)-1,2,6-thiadiazinane-3-carboxamide 1,1-dioxide] | 1000 to 5000 |
| CN1[C@@H](C(=O)Nc2ccc(F)c(Cl)c2)C[C@H](c2ccc(Br)s2)NS1(=O)=O [HBV-CSU-114-Trans-ISO-I, (3R,5R)-5-(5-bromothiophen-2-yl)-N-(3-chloro-4-fluorophenyl)-2-methyl-1,2,6-thiadiazinane-3-carboxamide 1,1-dioxide] | 1000 to 5000 |
| CN1[C@H](C(=O)Nc2ccc(F)c(Cl)c2)C[C@H](c2ccc(-c3ccccn3)s2)NS1(=O)=O [HBV-CSU-160-ISO-I, Cis-N-(3-chloro-4-fluorophenyl)-2-methyl-5-(5-(pyridin-2-yl)thiophen-2-yl)-1,2,6-thiadiazinane-3-carboxamide 1,1-dioxide] | < 1000 |
| CN1C(C(=O)Nc2ccc(F)c(Cl)c2)CC(c2ncc(-c3ccnn3C)s2)NS1(=O)=O (racemic) [HBV-CSU-281, Cis-N-(3-Chloro-4-fluorophenyl)-2-methyl-5-(5-(1-methyl-1H-pyrazol-5-yl)thiazol-2-yl)-1,2,6-thiadiazinane-3-carboxamide 1,1-dioxide] | < 1000 |
| CC(C)OCCN1C(C(=O)Nc2ccc(F)c(Cl)c2)CC(c2nccs2)NS1(=O)=O (stereo not drawn) [HBV-CSU-143, Cis-N-(3-Chloro-4-fluorophenyl)-2-(2-isopropoxyethyl)-5-(thiazol-2-yl)-1,2,6-thiadiazinane-3-carboxamide 1,1-dioxide] | < 1000 |
| CN1[C@H](C(=O)Nc2cccc(Br)c2)C[C@H](c2cccs2)NS1(=O)=O [HBV-CSU-017-ISO-I, Cis-N-(3-Bromophenyl)-2-methyl-5-(thiophen-2-yl)-1,2,6-thiadiazinane-3-carboxamide 1,1-dioxide] | < 1000 |
| Cc1nn(C)c(C)c1-c1csc(C2CC(C(=O)Nc3ccc(F)c(Cl)c3)N(C)S(=O)(=O)N2)c1 (racemic) [HBV-CSU-317, Cis-N-(3-chloro-4-fluorophenyl)-2-methyl-5-(4-(1,3,5-trimethyl-1H-pyrazol-4-yl)thiophen-2-yl)-1,2,6-thiadiazinane-3-carboxamide 1,1-dioxide] | < 1000 |
| CN1[C@H](C(=O)Nc2ccc(F)c(Cl)c2)C[C@H](c2ccc(C(=O)O)cc2)NS1(=O)=O [HBV-CSU-218-ISO-I, Cis-4-(5-((3-Chloro-4-fluorophenyl)carbamoyl)-6-methyl-1,1-dioxido-1,2,6-thiadiazinan-3-yl)benzoic acid] | > 5000 |
| [2H]C1C([2H])(c2ccc(-c3cn(C([2H])([2H])[2H])cn3)s2)NS(=O)(=O)N(C)C1([2H])C(=O)Nc1ccc(F)c(Cl)c1 (stereo not drawn) [HBV-CSU-376, Cis-N-(3-Chloro-4-fluorophenyl)-2-methyl-5-(5-(1-(methyl-d3)-1H-imidazol-4-yl)thiophen-2-yl)-1,2,6-thiadiazinane-3,4,5-d3-3-carboxamide 1,1-dioxide] | < 1000 |
| CN1[C@@H](C(=O)Nc2ccc(F)c(Cl)c2)C[C@@H](c2cc(-c3cnn(CCO)c3)cs2)NS1(=O)=O [HBV-CSU-296-ISO-II, Cis-N-(3-chloro-4-fluorophenyl)-5-(4-(1-(2-hydroxyethyl)-1H-pyrazol-4-yl)thiophen-2-yl)-2-methyl-1,2,6-thiadiazinane-3-carboxamide 1,1-dioxide] | 1000 to 5000 |
| CN1[C@@H](C(=O)Nc2ccc(F)c(Cl)c2)C[C@@H](c2ccc(Cl)cc2)NS1(=O)=O [HBV-CSU-265-ISO-II] | > 5000 |
| CN1C(C(=O)Nc2ccc(F)c(Br)c2)CC(c2cc(Br)cs2)NS1(=O)=O (racemic) [HBV-CSU-258, Cis-N-(3-Bromo-4-fluorophenyl)-5-(4-bromothiophen-2-yl)-2-methyl-1,2,6-thiadiazinane-3-carboxamide 1,1-dioxide] | < 1000 |
| CN1C(C(=O)Nc2ccc(F)c(Cl)c2)CC(c2cc(-c3cncs3)cs2)NS1(=O)=O (racemic) [HBV-CSU-286, Cis-N-(3-Chloro-4-fluorophenyl)-2-methyl-5-(4-(thiazol-5-yl)thiophen-2-yl)-1,2,6-thiadiazinane-3-carboxamide 1,1-dioxide] | < 1000 |
| CN1[C@H](C(=O)Nc2ccc(F)c(Cl)c2)C[C@H](c2cc(-c3ccnn3C)cs2)NS1(=O)=O (relative stereo) [HBV-CSU-289-ISO-I, Cis-N-(3-chloro-4-fluorophenyl)-2-methyl-5-(4-(1-methyl-1H-pyrazol-5-yl)thiophen-2-yl)-1,2,6-thiadiazinane-3-carboxamide 1,1-dioxide] | < 1000 |
| COc1ccc(-c2cnc([C@H]3C[C@@H](C(=O)Nc4ccc(F)c(Cl)c4)N(C)S(=O)(=O)N3)s2)cc1 [HBV-CSU-250-ISO-I, Cis-N-(3-Chloro-4-fluorophenyl)-5-(5-(4-methoxyphenyl)thiazol-2-yl)-2-methyl-1,2,6-thiadiazinane-3-carboxamide 1,1-dioxide] | < 1000 |
| CN1C(C(=O)Nc2ccc(F)c(Cl)c2)CC(c2ccc(-c3cn[nH]c3)s2)NS1(=O)=O (stereo not drawn) [HBV-CSU-244] | < 1000 |
| CN1C(C(=O)Nc2ccc(F)c(Cl)c2)CC(c2ccc(Br)s2)NS1(=O)=O (stereo not drawn) [HBV-CSU-114, 5-(5-Bromothiophen-2-yl)-N-(3-chloro-4-fluorophenyl)-2-methyl-1,2,6-thiadiazinane-3-carboxamide 1,1-dioxide] | < 1000 |
| CN1[C@@H](C(=O)Nc2ccc(F)c(Cl)c2)C[C@@H](c2ncc(-c3cccnc3)s2)NS1(=O)=O [HBV-CSU-175-ISO-II, Cis-N-(3-Chloro-4-fluorophenyl)-2-methyl-5-(5-(pyridin-3-yl)thiazol-2-yl)-1,2,6-thiadiazinane-3-carboxamide 1,1-dioxide] | < 1000 |
| CN1C(C(=O)Nc2ccc(F)c(Cl)c2)CC(c2cc(-c3ccnn3C)cs2)NS1(=O)=O (racemic) [HBV-CSU-289, Cis-N-(3-chloro-4-fluorophenyl)-2-methyl-5-(4-(1-methyl-1H-pyrazol-5-yl)thiophen-2-yl)-1,2,6-thiadiazinane-3-carboxamide 1,1-dioxide] | < 1000 |
| CN1[C@H](C(=O)Nc2ccc(F)c(Cl)c2)C[C@H](c2ncc(-c3cncs3)s2)NS1(=O)=O (relative stereo) [HBV-CSU-278-ISO-I, Cis-5-([5,5′-Bithiazol]-2-yl)-N-(3-chloro-4-fluorophenyl)-2-methyl-1,2,6-thiadiazinane-3-carboxamide 1,1-dioxide] | < 1000 |
| CN1[C@H](C(=O)Nc2ccc(F)c(Cl)c2)C[C@H](c2cc(-c3ncn(C)n3)cs2)NS1(=O)=O [HBV-CSU-326-ISO-I, Cis-N-(3-chloro-4-fluorophenyl)-2-methyl-5-(4-(1-methyl-1H-1,2,4-triazol-3-yl)thiophen-2-yl)-1,2,6-thiadiazinane-3-carboxamide 1,1-dioxide] | < 1000 |
| CN1C(C(=O)Nc2ccc(F)c(Cl)c2)CC(c2ncc(-c3cccs3)s2)NS1(=O)=O (racemic) [HBV-CSU-178, Cis-N-(3-Chloro-4-fluorophenyl)-2-methyl-5-(5-(thiophen-2-yl)thiazol-2-yl)-1,2,6-thiadiazinane-3-carboxamide 1,1-dioxide] | < 1000 |
| CN1C(C(=O)Nc2ccc(F)c(Cl)c2)CC(c2ccc(OC(F)(F)F)cc2)NS1(=O)=O (racemic) [HBV-CSU-232, Cis-N-(3-Chloro-4-fluorophenyl)-2-methyl-5-(4-(trifluoromethoxy)phenyl)-1,2,6-thiadiazinane-3-carboxamide 1,1-dioxide] | < 1000 |
